Laboratory results reported in ChEMBL document CHEMBL3045984, “Resistance to HPPD-inhibiting herbicides in a population of waterhemp (Amaranthus tuberculatus) from Illinois, United States” (2011).

What was measured:
Format in all cases: functional
Amaranthus tuberculatus [1] = test: Herbicidal activity against Amaranthus tuberculatus biotype MCR 12 assessed as visual injury at 560 g/ha applied as spray after 14 days under green house conditions relative to untreated control
Amaranthus tuberculatus [2] = test: Herbicidal activity against Amaranthus tuberculatus biotype ACR assessed as visual injury at 560 g/ha applied as spray after 7 days under green house conditions relative to untreated control
Amaranthus tuberculatus [3] = test: Herbicidal activity against Amaranthus tuberculatus biotype WCS assessed as visual injury at 560 g/ha applied as spray after 7 days under green house conditions relative to untreated control
Amaranthus tuberculatus [4] = test: Herbicidal activity against Amaranthus tuberculatus biotype MCR 12 assessed as visual injury at 560 g/ha applied as spray after 21 days under green house conditions relative to untreated control
Amaranthus tuberculatus [5] = test: Herbicidal activity against Amaranthus tuberculatus biotype MCR 15 assessed as visual injury at 560 g/ha applied as spray after 14 days under green house conditions relative to untreated control
Amaranthus tuberculatus [6] = test: Herbicidal activity against Amaranthus tuberculatus biotype ACR assessed as visual injury at 560 g/ha applied as spray after 21 days under green house conditions relative to untreated control
Amaranthus tuberculatus [7] = test: Herbicidal activity against Amaranthus tuberculatus biotype MCR 15 assessed as visual injury at 560 g/ha applied as spray after 21 days under green house conditions relative to untreated control
Amaranthus tuberculatus [8] = test: Herbicidal activity against Amaranthus tuberculatus biotype MCR 16 assessed as visual injury at 560 g/ha applied as spray after 14 days under green house conditions relative to untreated control
Amaranthus tuberculatus [9] = test: Herbicidal activity against Amaranthus tuberculatus biotype MCR 16 assessed as visual injury at 560 g/ha applied as spray after 21 days under green house conditions relative to untreated control
Amaranthus tuberculatus [10] = test: Herbicidal activity against Amaranthus tuberculatus biotype MCR 12 assessed as visual injury at 560 g/ha applied as spray after 7 days under green house conditions relative to untreated control
Amaranthus tuberculatus [11] = test: Herbicidal activity against Amaranthus tuberculatus biotype WCS assessed as visual injury at 560 g/ha applied as spray after 14 days under green house conditions relative to untreated control
Amaranthus tuberculatus [12] = test: Herbicidal activity against Amaranthus tuberculatus biotype ACR assessed as visual injury at 560 g/ha applied as spray after 14 days under green house conditions relative to untreated control
Amaranthus tuberculatus [13] = test: Herbicidal activity against Amaranthus tuberculatus biotype WCS assessed as visual injury at 560 g/ha applied as spray after 21 days under green house conditions relative to untreated control
Amaranthus tuberculatus [14] = test: Herbicidal activity against Amaranthus tuberculatus biotype MCR 16 assessed as visual injury at 560 g/ha applied as spray after 7 days under green house conditions relative to untreated control
Amaranthus tuberculatus [15] = test: Herbicidal activity against Amaranthus tuberculatus biotype MCR 15 assessed as visual injury at 560 g/ha applied as spray after 7 days under green house conditions relative to untreated control
Amaranthus tuberculatus [16] = test: Herbicidal activity against Amaranthus tuberculatus biotype WCS assessed as decrease in shoot dry weight applied as spray after 21 days under green house conditions
Amaranthus tuberculatus [17] = test: Herbicidal activity against Amaranthus tuberculatus biotype MCR 12 assessed as visual injury at 105 g/ha applied as spray after 7 days under green house conditions relative to untreated control
Amaranthus tuberculatus [18] = test: Herbicidal activity against Amaranthus tuberculatus biotype MCR 15 assessed as visual injury at 105 g/ha applied as spray after 7 days under green house conditions relative to untreated control
Amaranthus tuberculatus [19] = test: Herbicidal activity against Amaranthus tuberculatus biotype MCR assessed as mortality at 105 g/ha applied as spray after 21 days under green house conditions relative to untreated control; conditions: 504 h
Amaranthus tuberculatus [20] = test: Herbicidal activity against Amaranthus tuberculatus biotype MCR assessed as mortality at 315 g/ha applied as spray after 21 days under green house conditions relative to untreated control; conditions: 504 h
Amaranthus tuberculatus [21] = test: Herbicidal activity against Amaranthus tuberculatus biotype ACR assessed as visual injury at 105 g/ha applied as spray after 14 days under green house conditions relative to untreated control
Amaranthus tuberculatus [22] = test: Herbicidal activity against Amaranthus tuberculatus biotype MCR assessed as decrease in shoot dry weight at 105 g/ha applied as spray during post-emergence after 21 days under green house conditions relative to untreated control; design: scale not given: the % may be the effect or the level left
Amaranthus tuberculatus [23] = test: Herbicidal activity against Amaranthus tuberculatus biotype ACR assessed as decrease in shoot dry weight at 105 g/ha applied as spray during post-emergence after 21 days under green house conditions relative to untreated control; design: scale not given: the % may be the effect or the level left
Amaranthus tuberculatus [24] = test: Herbicidal activity against Amaranthus tuberculatus biotype MCR 12 assessed as visual injury at 105 g/ha applied as spray after 21 days under green house conditions relative to untreated control
Amaranthus tuberculatus [25] = test: Herbicidal activity against Amaranthus tuberculatus biotype WCS assessed as visual injury at 105 g/ha applied as spray after 14 days under green house conditions relative to untreated control
Amaranthus tuberculatus [26] = test: Herbicidal activity against Amaranthus tuberculatus biotype WCS assessed as decrease in shoot dry weight at 105 g/ha applied as spray during post-emergence after 21 days under green house conditions relative to untreated control; design: scale not given: the % may be the effect or the level left
Amaranthus tuberculatus [27] = test: Herbicidal activity against Amaranthus tuberculatus biotype WCS assessed as visual injury at 105 g/ha applied as spray after 21 days under green house conditions relative to untreated control
Amaranthus tuberculatus [28] = test: Herbicidal activity against Amaranthus tuberculatus biotype MCR 15 assessed as visual injury at 105 g/ha applied as spray after 21 days under green house conditions relative to untreated control
Amaranthus tuberculatus [29] = test: Herbicidal activity against Amaranthus tuberculatus biotype MCR 16 assessed as visual injury at 105 g/ha applied as spray after 21 days under green house conditions relative to untreated control
Amaranthus tuberculatus [30] = test: Herbicidal activity against Amaranthus tuberculatus biotype MCR assessed as decrease in shoot dry weight applied as spray after 21 days under green house conditions
Amaranthus tuberculatus [31] = test: Herbicidal activity against Amaranthus tuberculatus biotype MCR 15 assessed as visual injury at 105 g/ha applied as spray after 14 days under green house conditions relative to untreated control
Amaranthus tuberculatus [32] = test: Herbicidal activity against Amaranthus tuberculatus biotype MCR 16 assessed as visual injury at 105 g/ha applied as spray after 7 days under green house conditions relative to untreated control
Amaranthus tuberculatus [33] = test: Herbicidal activity against Amaranthus tuberculatus biotype MCR 16 assessed as visual injury at 105 g/ha applied as spray after 14 days under green house conditions relative to untreated control
Amaranthus tuberculatus [34] = test: Herbicidal activity against Amaranthus tuberculatus biotype ACR assessed as visual injury at 315 g/ha applied as spray after 21 days under green house conditions relative to untreated control
Amaranthus tuberculatus [35] = test: Herbicidal activity against Amaranthus tuberculatus biotype MCR 12 assessed as visual injury at 105 g/ha applied as spray after 14 days under green house conditions relative to untreated control
Amaranthus tuberculatus [36] = test: Herbicidal activity against Amaranthus tuberculatus biotype ACR assessed as decrease in shoot dry weight applied as spray after 21 days under green house conditions
Amaranthus tuberculatus [37] = test: Herbicidal activity against Amaranthus tuberculatus biotype ACR assessed as visual injury at 105 g/ha applied as spray after 7 days under green house conditions relative to untreated control
Amaranthus tuberculatus [38] = test: Herbicidal activity against Amaranthus tuberculatus biotype ACR assessed as visual injury at 105 g/ha applied as spray after 21 days under green house conditions relative to untreated control
Amaranthus tuberculatus [39] = test: Herbicidal activity against Amaranthus tuberculatus biotype WCS assessed as visual injury at 105 g/ha after 7 days applied as spray under green house conditions relative to untreated control
Amaranthus tuberculatus [40] = test: Herbicidal activity against Amaranthus tuberculatus biotype WCS assessed as visual injury at 315 g/ha applied as spray after 21 days under green house conditions relative to untreated control

CCNc1nc(Cl)nc(NC(C)C)n1 [ATRAZINE]
Activity (Amaranthus tuberculatus [1]): 4%
Activity (Amaranthus tuberculatus [2]): 14%
Activity (Amaranthus tuberculatus [3]): 83%
Activity (Amaranthus tuberculatus [4]): 4%
Activity (Amaranthus tuberculatus [5]): 2%
Activity (Amaranthus tuberculatus [6]): 4%
Activity (Amaranthus tuberculatus [7]): 1%
Activity (Amaranthus tuberculatus [8]): 1%
Activity (Amaranthus tuberculatus [9]): 1%
Activity (Amaranthus tuberculatus [10]): 7%
Activity (Amaranthus tuberculatus [11]): 87%
Activity (Amaranthus tuberculatus [12]): 8%
Activity (Amaranthus tuberculatus [13]): 81%
Activity (Amaranthus tuberculatus [14]): 5%
Activity (Amaranthus tuberculatus [15]): 5%

CS(=O)(=O)c1ccc(C(=O)C2C(=O)CCCC2=O)c([N+](=O)[O-])c1 [MESOTRIONE]
GR50 (Amaranthus tuberculatus [16]): 1.4 g/ha
Activity (Amaranthus tuberculatus [17]): 40%
Activity (Amaranthus tuberculatus [18]): 37%
mortality at 105 g/ha (Amaranthus tuberculatus [19]): 0%
mortality at 315 g/ha (Amaranthus tuberculatus [20]): 33%
Activity (Amaranthus tuberculatus [21]): 90%
Activity (Amaranthus tuberculatus [22]): 60%
Activity (Amaranthus tuberculatus [23]): >90%
Activity (Amaranthus tuberculatus [24]): 13%
Activity (Amaranthus tuberculatus [25]): 96%
Activity (Amaranthus tuberculatus [26]): >90%
Activity (Amaranthus tuberculatus [27]): 100%
Activity (Amaranthus tuberculatus [28]): 26%
Activity (Amaranthus tuberculatus [29]): 27%
GR50 (Amaranthus tuberculatus [30]): 48.5 g/ha
Activity (Amaranthus tuberculatus [31]): 36%
Activity (Amaranthus tuberculatus [32]): 48%
Activity (Amaranthus tuberculatus [33]): 45%
Activity (Amaranthus tuberculatus [34]): 100%
Activity (Amaranthus tuberculatus [35]): 24%
GR50 (Amaranthus tuberculatus [36]): 4.9 g/ha
Activity (Amaranthus tuberculatus [37]): 63%
Activity (Amaranthus tuberculatus [38]): 88%
Activity (Amaranthus tuberculatus [39]): 85%
Activity (Amaranthus tuberculatus [40]): 100%
